From US9850522B2, “One-step rapid assay for the detection of inhibitors of enzymes” (priority 2013, dated 2017) come the findings set out here.

Assay [1] deals with T1, AChE from eel (Electrophorus electricus, UniProt O42275).
T1 construct: purchased Sigma-Aldrich
Kind of assay: AChE test ticket, fluorescence (NMI substrate), reader hue ratio. The format is biochemical. The method, then: N-methyl indoxyl (NMI) acetate (100 mg, Sigma-Aldrich) was dissolved in 100 mil, 100% USP ethyl alcohol (Sigma-Aldrich) for a final concentration of […]. Strips of porous matrix Surewick Sample Pad C248 (Millipore) were saturated with this NMI solution and dried at 45° C. for two hours. The strips were then removed from the oven and stored in a resealable plastic bag with desiccant.
AChE from eel (Sigma-Aldrich) was dissolved to a final concentration of 2.2 units/mL in a buffer containing 10 mM potassium phosphate, 5% sucrose and 0.5% BSA at pH=7.4 and passed through a 0.22 μm filter. Strips of Millipore GFCP20300 glass fiber were pretreated by soaking with a mixture of 2% sucrose and 2% Triton in 6.25 mM borate buffer and dried at 45° C. in an oven for 2 hours. These glass fiber strips were then saturated with the solution of AChE and dried for 2 hours at 45° C. The strips were then removed from the oven and stored in a resealable plastic bag with desiccant.
To an adhesive-coated plastic backing, card (G&L) cut to 3×27 cm, is attached the fluid transfer membrane (nitrocellulose membrane) at a distance of 10 mm from the card bottom edge. The enzyme sample pad is attached flush to the bottom edge of the backing card overlapping the nitrocellulose membrane strip. The substrate pad is then attached flush to the other edge of the backing card (top edge), overlapping the nitrocellulose membrane. The assembled cards are then cut into 6.75 mm wide×16 mm long test strips using an automated guillotine cutter.
A stock solution (1 mg/mL) of the carbamate pesticide, oxamyl (Supelco), was prepared in methanol, then serially diluted in purified water to a final concentration of 0.1 mg/L for use as a test sample. […]
All tickets were then allowed to run for 15 minutes, then were inserted into a reader comprised of low light color cameras, 400 nm UV LED and custom color analysis software (FIG. 6). The reader calculates a ratio of the hue measured in the test sample site at the substrate pad to the hue measured in the negative control site at the substrate pad. […]

Assay [2] has as its target acetylcholinesterase (Electrophorus electricus, UniProt O42275). Description: Colorimetric test ticket, acetylcholinesterase strip. In kind it is biochemical. The note with it: 1 ppm; positive result, lack of blue color.

Marks after values point to notes of the source that are not given here.

T1 sequence (O42275 24-633): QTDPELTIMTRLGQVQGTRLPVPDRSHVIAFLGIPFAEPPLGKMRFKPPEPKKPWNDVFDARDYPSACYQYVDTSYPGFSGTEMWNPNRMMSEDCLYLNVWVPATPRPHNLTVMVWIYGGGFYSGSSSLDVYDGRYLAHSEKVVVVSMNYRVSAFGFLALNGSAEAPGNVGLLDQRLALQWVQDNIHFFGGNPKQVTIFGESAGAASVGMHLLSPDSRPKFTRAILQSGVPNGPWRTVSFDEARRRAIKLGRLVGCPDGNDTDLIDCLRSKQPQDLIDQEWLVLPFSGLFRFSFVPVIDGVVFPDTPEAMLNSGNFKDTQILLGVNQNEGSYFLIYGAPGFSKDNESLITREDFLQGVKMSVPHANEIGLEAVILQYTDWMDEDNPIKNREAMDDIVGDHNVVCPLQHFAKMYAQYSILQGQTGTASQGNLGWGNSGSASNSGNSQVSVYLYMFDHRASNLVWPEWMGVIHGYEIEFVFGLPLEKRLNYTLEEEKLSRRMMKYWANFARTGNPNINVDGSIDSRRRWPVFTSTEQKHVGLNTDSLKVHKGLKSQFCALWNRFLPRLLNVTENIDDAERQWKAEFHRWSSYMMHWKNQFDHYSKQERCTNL
Chain of acetylcholinesterase (O42275 24-633): as above

On to `CNC(=O)O/N=C(\SC)C(=O)N(C)C` [Oxamyl, oxamyl], for which, in assay [1], the “Reactivity with AChE” value was “reacts strongly with AChE”. In addition, the Fluorescence hue ratio in assay [1] (tested with AChE, 0.1 mg/L in purified water, test sample well:control well, 15 minutes run) is 2.82*. In assay [1] (tested with AChE, 0.1 mg/L, hue ratio cutoff of 1.25), the Result entry was “Positive (a ratio greater than 1.25 is considered positive)”. Also, in assay [2], the “Result of colorimetric test ticket (FIG. 14 C)” value is recorded as “inhibits acetylcholinesterase”.
